Data from patent publication US20250115583A1, “BICYCLIC INDAZOLE GLUCOCORTICOID RECEPTOR ANTAGONISTS” (Corcept Therapeutics Incorporated, priority 2021, published 2025).
pKi: −log10 of the molar value.

Target: glucocorticoid receptor (Homo sapiens (Human), UniProt P04150)
Assay: HepG2 TAT assay: inhibition of dexamethasone-induced tyrosine aminotransferase (TAT) activity
Type: cell-based
Conditions: HepG2 cells, challenge of 100 nM dexamethasone, 18-24 hr; IC50 converted to Ki by Cheng and Prusoff equation
Outline: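 Cells lysed 15 min at 4 °C; TAT enzyme reaction 2 h at 37 °C, stopped with KOH, 30 min further at 37 °C. Inhibition fitted to 4-parameter logistic.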

Sequence of glucocorticoid receptor (P04150 whole entry): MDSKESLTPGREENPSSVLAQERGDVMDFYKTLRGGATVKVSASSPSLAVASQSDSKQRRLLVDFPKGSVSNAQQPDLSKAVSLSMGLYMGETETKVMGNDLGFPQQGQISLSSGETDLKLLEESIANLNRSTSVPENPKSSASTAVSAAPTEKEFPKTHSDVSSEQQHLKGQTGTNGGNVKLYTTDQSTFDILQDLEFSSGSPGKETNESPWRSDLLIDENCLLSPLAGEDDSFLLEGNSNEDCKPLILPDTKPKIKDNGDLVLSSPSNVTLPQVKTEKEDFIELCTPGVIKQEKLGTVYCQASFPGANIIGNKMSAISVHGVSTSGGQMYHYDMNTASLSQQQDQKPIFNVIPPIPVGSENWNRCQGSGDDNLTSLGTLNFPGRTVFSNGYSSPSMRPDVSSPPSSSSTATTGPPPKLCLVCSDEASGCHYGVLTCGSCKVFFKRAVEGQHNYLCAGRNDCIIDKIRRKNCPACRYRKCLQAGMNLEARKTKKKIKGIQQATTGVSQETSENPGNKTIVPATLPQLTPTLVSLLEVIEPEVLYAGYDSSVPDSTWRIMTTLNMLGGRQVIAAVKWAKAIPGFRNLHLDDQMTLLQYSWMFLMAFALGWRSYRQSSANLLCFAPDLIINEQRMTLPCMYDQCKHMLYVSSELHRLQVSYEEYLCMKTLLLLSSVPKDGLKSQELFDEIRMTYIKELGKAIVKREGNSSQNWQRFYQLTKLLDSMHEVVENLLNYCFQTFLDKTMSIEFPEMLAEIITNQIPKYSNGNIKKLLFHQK

Structure (SMILES) | pKi
Cc1cc2c(cnn2-c2ccc(F)cc2)cc1[C@@]12CN(C(=O)c3ccccc3)C[C@@H]1[C@@]2(C)c1ccccc1 (stereo in doubt) [Example 183, (1-(1-(4-fluorophenyl)-6-methyl-1H-indazol-5-yl)-6-methyl-6-phenyl-3-azabicyclo[3.1.0]hexan-3-yl)(phenyl)methanone] | 7.43
Cc1cc2c(cnn2-c2ccc(F)cc2)cc1[C@@]12CN(C(=O)c3ccccc3)C[C@@H]1[C@H]2c1cccnc1 (stereo in doubt) [Example 173, (1-(1-(4-fluorophenyl)-6-methyl-1H-indazol-5-yl)-6-(pyridin-3-yl)-3-azabicyclo[3.1.0]hexan-3-yl)(phenyl)methanone] | 6.89
CO[C@]1(c2ccccc2)C[C@@H]2CN(S(=O)(=O)c3cnn(C)c3)C[C@]2(c2cc3cnn(-c4ccc(F)cc4)c3cc2C)C1 [Example 5, 1-(4-fluorophenyl)-5-((3aR,5R,6aS)-5-methoxy-2-((1-methyl-1H-pyrazol-4-yl)sulfonyl)-5-phenylhexahydrocyclopenta[c]pyrrol-3a(1H)-yl)-6-methyl-1H-indazole] | 6.62
Cc1ccc(C(=O)N2C[C@@H]3[C@@H](c4ccccc4)[C@]3(c3cc4cnn(-c5ccc(F)cc5)c4cc3C)C2)nc1 (single isomer, unassigned) [Example 151, (1-(1-(4-fluorophenyl)-6-methyl-1H-indazol-5-yl)-6-phenyl-3-azabicyclo[3.1.0]hexan-3-yl)(5-methylpyridin-2-yl)methanone] | 7.55
CCn1ncc(S(=O)(=O)N2C[C@H]3[C@H](c4ccccc4)[C@@]3(c3cc4cnn(-c5ccc(F)cc5)c4cc3C)C2)n1 [Example 74] | 7.82
COC1CC2CN(S(C)(=O)=O)CC2(c2cc3cnn(-c4ccc(F)cc4)c3cc2C)C1 (stereo not shown) [Example 34, 1-(4-fluorophenyl)-5-(5-methoxy-2-(methylsulfonyl)hexahydrocyclopenta[c]pyrrol-3a(1H)-yl)-6-methyl-1H-indazole] | 6.10
Cc1cc2c(cnn2-c2ccc(F)cc2)cc1[C@@]12CN(C(=O)c3ncc(F)cc3F)C[C@@H]1[C@H]2c1ccccc1 (stereo in doubt) [Example 157, (3,5-difluoropyridin-2-yl)(1-(1-(4-fluorophenyl)-6-methyl-1H-indazol-5-yl)-6-phenyl-3-azabicyclo[3.1.0]hexan-3-yl)methanone] | 7.74
Cc1cc2c(cnn2-c2ccc(F)cc2)cc1[C@@]12CN(C(=O)c3ccccc3)C[C@@H]1[C@H]2CN1CCOCC1 (stereo in doubt) [Example 180, (1-(1-(4-fluorophenyl)-6-methyl-1H-indazol-5-yl)-6-(morpholinomethyl)-3-azabicyclo[3.1.0]hexan-3-yl)(phenyl)methanone] | 6.22
Cc1cc2c(cnn2-c2ccc(F)cc2)cc1[C@@]12CN(C(=O)c3ncn(C)n3)C[C@@H]1[C@H]2c1ccccc1 (single isomer, unassigned) [Example 172, (1-(1-(4-fluorophenyl)-6-methyl-1H-indazol-5-yl)-6-phenyl-3-azabicyclo[3.1.0]hexan-3-yl)(1-methyl-1H-1,2,4-triazol-3-yl)methanone] | 7.59
Cc1cc2c(cnn2-c2ccc(F)cc2)cc1[C@@]12CN(C(=O)c3ccccc3N3CCOCC3)C[C@@H]1[C@H]2c1ccccc1 (stereo in doubt) [Example 174, (1-(1-(4-fluorophenyl)-6-methyl-1H-indazol-5-yl)-6-phenyl-3-azabicyclo[3.1.0]hexan-3-yl)(2-morpholinophenyl)methanone] | 7.41
Cc1cc2c(cnn2-c2ccc(F)cc2)cc1[C@@]12CN(S(=O)(=O)c3cncs3)C[C@@H]1[C@H]2c1ccccc1 [Example 91] | 7.66
COCCOCCS(=O)(=O)N1C[C@@H]2[C@@H](c3ccccc3)[C@]2(c2cc3cnn(-c4ccc(F)cc4)c3cc2C)C1 (stereo in doubt) [Example 138, 1-(4-fluorophenyl)-5-(3-((2-(2-methoxyethoxy)ethyl)sulfonyl)-6-phenyl-3-azabicyclo[3.1.0]hexan-1-yl)-6-methyl-1H-indazole] | 7.15
Cc1cc2c(cnn2-c2ccc(F)cc2)cc1[C@]12CN(S(=O)(=O)c3cnn(C)n3)C[C@H]1[C@@H]2C(=O)Nc1ccccc1 [Example 62] | 7.42

More lines, now with the values ahead:

pKi | Structure (SMILES)
7.51 | Cc1cc2c(cnn2-c2ccc(F)cc2)cc1[C@@]12CN(C(=O)c3ccccn3)C[C@@H]1[C@H]2c1ccccc1 (stereo in doubt) [Example 116, (1-(1-(4-fluorophenyl)-6-methyl-1H-indazol-5-yl)-6-phenyl-3-azabicyclo[3.1.0]hexan-3-yl)(pyridin-2-yl)methanone]
6.72 | Cc1cc2c(cnn2-c2ccc(F)cc2)cc1C12CC(Oc3ccccc3)CC1CN(C(=O)c1ccccc1)C2 (stereo not shown) [Example 39]
6.54 | COC1(c2nccs2)CC2CN(S(=O)(=O)c3cnn(C)c3)CC2(c2cc3cnn(-c4ccc(F)cc4)c3cc2C)C1 (stereo not shown) [Example 3, 2-(3a-(1-(4-fluorophenyl)-6-methyl-1H-indazol-5-yl)-5-methoxy-2-((1-methyl-1H-pyrazol-4-yl)sulfonyl)octahydrocyclopenta[c]pyrrol-5-yl)thiazole]
7.46 | COc1ccnc(C(=O)N2C[C@@H]3[C@@H](c4ccccc4)[C@]3(c3cc4cnn(-c5ccc(F)cc5)c4cc3C)C2)c1 (stereo in doubt) [Example 169, (1-(1-(4-fluorophenyl)-6-methyl-1H-indazol-5-yl)-6-phenyl-3-azabicyclo[3.1.0]hexan-3-yl)(4-methoxypyridin-2-yl)methanone]
7.24 | Cc1cc2c(cnn2-c2ccc(F)cc2)cc1[C@@]12CN(C(=O)C(C)C)C[C@@H]1[C@H]2c1ccccc1 (single isomer, unassigned) [Example 113, 1-(1-(1-(4-fluorophenyl)-6-methyl-1H-indazol-5-yl)-6-phenyl-3-azabicyclo[3.1.0]hexan-3-yl)-2-methylpropan-1-one]
7.48 | Cc1cc2c(cnn2-c2ccc(F)cc2)cc1[C@]12CN(S(=O)(=O)c3cnn(C)n3)C[C@H]1[C@@H]2C(=O)Nc1ccc(F)cn1 (stereo in doubt) [Example 54, 1-(1-(4-fluorophenyl)-6-methyl-1H-indazol-5-yl)-N-(5-fluoropyridin-2-yl)-3-((2-methyl-2H-1,2,3-triazol-4-yl)sulfonyl)-3-azabicyclo[3.1.0]hexane-6-carboxamide]
7.15 | Cc1cc2c(cnn2-c2ccc(F)cc2)cc1[C@@]12CN(C(=O)C3CCOCC3)C[C@@H]1[C@H]2c1ccccc1 (stereo in doubt) [Example 160, (1-(1-(4-fluorophenyl)-6-methyl-1H-indazol-5-yl)-6-phenyl-3-azabicyclo[3.1.0]hexan-3-yl)(tetrahydro-2H-pyran-4-yl)methanone]
7.28 | CCn1ncc(S(=O)(=O)N2CC3CC(OC)(c4ccccc4)CC3(c3cc4cnn(-c5ccc(F)cc5)c4cc3C)C2)n1 (stereo not shown) [Example 26]
7.35 | Cc1cc2c(cnn2-c2ccc(F)cc2)cc1[C@@]12CN(S(=O)(=O)C3CCC3)C[C@@H]1[C@H]2c1ccccc1 (stereo in doubt) [Example 139, 5-(3-(cyclobutylsulfonyl)-6-phenyl-3-azabicyclo[3.1.0]hexan-1-yl)-1-(4-fluorophenyl)-6-methyl-1H-indazole]
